Laboratory results: patent publication US6001832A, “[1,2,4]triazolo[4,3-a]quinoxalinone derivatives, their preparation and use” (Novo Nordiskals, priority 1994, dated 1999)

Columns and labels:
AMPA type receptors = experiment: 3H-AMPA Binding (Test 1); details: displacement of 50% of the specific binding of 3H-AMPA (5 nM); rat cerebral cortical membrane homogenate, 0° C., 30 min, pH 7.1
Description: (§1) The pharmacological properties of the compounds of the present invention can be illustrated by determining their capability for displacing radioactively labelled 2-amino-3-hydroxy-5-methyl-4-isoxazolepropionic acid (AMPA) from the AMPA type receptors.
The displacement activity of the compounds may be shown by determining the IC50 value which represents the concentration (μM) which causes a displacement of 50% of the specific binding of ^3 H-AMPA.
^3 H-AMPA Binding (Test 1)
500 μl of thawed rat cerebral cortical membrane homogenate in Tris-HCl (30 mM), CaCl2 (2.5 mM) and KSCN (100 mM) pH 7.1 were incubated at 0° C. for 30 min. with 25 μl ^3 H-AMPA (5 nM final concentration) and the test compound and buffer. Nonspecific binding was determined by incubation with L-glutamic acid (600 μM final concentration). The binding reaction was terminated by adding 5 ml of ice-cold buffer followed by filtration through Whatman GF/C glass fibre filters and 2×5 ml wash with ice-cold buffer. Bound radioactivity was measured by scintillation counting. IC50 was determined by Hill analysis of at least four concentrations of test compound.

[1] = test system: quisqualic acid stimulated spreading depression in chicken retina; experiment: Spreading Depression (Test 2): quisqualic acid stimulated spreading depression in chicken retina; type: cell-based; details: Gallus gallus, 0.25 h; 50% maximal inhibition of quisqualate (1 μg/ml) stimulated spreading depression in chicken retina; 15 min incubation with test compound, 26° C.
Description: as §1
The antagonism is measured by determining the IC50 value which represents the concentration which produces a 50% maximal inhibition of quisqualic acid stimulated spreading depression in chicken retina.
Spreading Depression (Test 2)
Chicks (3-10 days old) were decapitated, the eyes enucleated and sectioned along the equatorial plane. […]
The eyes were initially incubated in normal P.S.S. for 15-30 min. and then transferred to P.S.S. containing quisqualate (1 μg/ml). […] The time taken for an S.D. to start in each eye was measured.
After a further 15 min. of incubation in normal P.S.S. the eyes were transferred to normal P.S.S. containing the test compound and incubated for 15 min. […] The time taken for an S.D. to start in each eye was measured again. The eyes were then placed back in normal P.S.S. and after 15 min. the time taken for S.D. to start was measured again, in order to assess the degree of recovery from any drug effects. […]

IC50 (AMPA type receptors): 390 nM | IC50 [1]: 400 nM
Compound: Cc1cn(-c2cc3c(cc2C(F)(F)F)[nH]c(=O)c2nnc(CP(=O)(O)O)n23)c(-c2ccccc2)n1 [Example 2, 8-(4-Methyl-2-phenyl-1H-imidazol-1-yl)-1-phosphonomethyl-7-trifluoromethyl[1,2,4]triazolo[4,3-a]quinoxalin-4(5H)-one]
